The subject of assay [1] is HMEC, human mammary gland epithelial cells. The following applies: 72 hours. As to the method: (§1) MCF-7 human breast adenocarcinoma cells (ATCC) are maintained in Eagle's Minimal Essential Medium supplemented with 10% FBS (Gibco-BRL), 1% Penicillin-Streptomycin-Glutamine and 10 nM 17β Estradiol, (Sigma). MCF-10A cells, human fibrocystic mammary gland epithelial cells (ATCC) and HMEC, human mammary gland epithelial cells (Cambrex) are maintained in mammary epithelial complete growth medium (MEGM) containing the Bullet Kit (Cambrex Bio Sciences).
Cells are seeded on 24-well plates at 20-25×10^3 cells/well in 0.4-0.5 ml of their respective media. […] Cells with no treatment are the controls. Plates are incubated at 37° C. for 72 hours. Cell proliferation is measured using ViaLight Plus Cell Proliferation and Cytotoxicity BioAssay Kit by quantifying the amount of ATP released from the cells according to manufacture's protocol. […]
The luminometer and associated WinGlow software program are set up and primed with reconstituted AMR. […] The luminometer is programmed to take one second integrated reading of each appropriate well. The plates are incubated for 2 minutes at room temperature in the luminometer and one second integrated reading of each appropriate well is initiated.
Average RLU (relative luciferase unit) values for each set of triplicate wells, using Winglow software and Microsoft Excel, is calculated and graphed. […]

Assay [2] deals with MCF-7 human breast adenocarcinoma cells. The experiment in a line: Cell proliferation assay (ViaLight Plus, ATP). The following applies: MCF7, 72 hours. The class given is cell-based. As to the method: as §1
Cells are seeded on 24-well plates at 20-25×10^3 cells/well in 0.4-0.5 ml of their respective media. […] Cells with no treatment are the controls. Plates are incubated at 37° C. for 72 hours. Cell proliferation is measured using ViaLight Plus Cell Proliferation and Cytotoxicity BioAssay Kit by quantifying the amount of ATP released from the cells according to manufacture's protocol.
Cell culture plates are warmed up to room temperature for 5 minutes and 200 μl of cell lysis reagent is added to each well. After incubation at room temperature for 10 minutes with intermediate swirling of the plate, 100 μl of the sample from each well is loaded in triplicate in a white 96-well microtiter plate, Dynex Microlite 1+, for vialight assay. The ATP monitoring reagent (AMR) is reconstituted in assay buffer and allowed to equilibrate for 15 minutes at room temperature.
The luminometer and associated WinGlow software program are set up and primed with reconstituted AMR. The plate is placed in the luminometer and 100 μl of reconstituted AMR is dispensed per well. The luminometer is programmed to take one second integrated reading of each appropriate well. The plates are incubated for 2 minutes at room temperature in the luminometer and one second integrated reading of each appropriate well is initiated.
Average RLU (relative luciferase unit) values for each set of triplicate wells, using Winglow software and Microsoft Excel, is calculated and graphed. Effects of various treatments are calculated by plotting the percent of inhibition of cell proliferation versus the concentration of treatment. Percent inhibition of cell proliferation is calculated using the formula: […]

In a further assay the test system is MCF10A cells. To be noted: GLA 0, 50, 100 μM, 48 hours.
Assay [3] has as its system MCF-10A cells, human fibrocystic mammary gland epithelial cells. As to the kind of experiment: Cell proliferation assay (ViaLight Plus, ATP). The class given is cell-based. The following applies: MCF10A, 72 hours. As to the method: Cells with no treatment are the controls. Plates are incubated at 37° C. for 72 hours.
The subject of another assay is MCF7 cells. To be noted: MCF7, GLA 0, 50, 100 μM, 48 hours.
The next assay has as its system thyroid follicular cells. The following applies: well known; cited from earlier work.

The text below walks through data of US8663679B2, “Compositions for improving breast health in women” (Abbott Laboratories, priority 2004, dated 2014).

Protocol for MCF10A cells: (§2) Cells are grown in T75 flasks up to 70-80% confluence before being treated with desired fatty acids conjugated with BSA for 48 hours at 37° C. at various concentrations (0, 50, 100 μM). After incubation, the cells are trypsinized from the flask and the cell suspensions are pooled and collected in 50 ml tubes. Each cell type and each treatment is done in duplicate. Cell suspensions are then centrifuged at 1000 rpm for 10 minutes each. Supernatants are discarded and the pellets suspended in phosphate buffered saline. The cells are washed twice with 10 ml of PBS (Phosphate buffer saline) at each step and centrifuged. The pellets are re-suspended in 10 ml of PBS and counted and the cell numbers are normalized for the experiment. The cell suspension is centrifuged again and the pellets stored at −80° C. until lipid extraction is performed.
(§3) Briefly, each cell pellet from a 50 ml culture is vortexed with 6 ml of methanol, followed by the addition of 12 ml of chloroform and 100 μg of tridecanoin (as internal standard). The mixture is incubated at 4° C. overnight. The chloroform layer is extracted and filtered through a Whatman filter with one gram of anhydrous sodium sulfate to remove particulates and residual water. Organic solvents are evaporated to dryness at 40° C. under a stream of nitrogen. […]
Protocol for MCF7 cells: as §2, §3

Turning to `CCCCC/C=C\C/C=C\C/C=C\CCCCC(=O)O` [GLA, (Z,Z,Z)-6,9,12-octadecatrienoic acid], the “anti-proliferative activity on normal breast cells” value in assay [1] was “no effect”. Also, the “anti-proliferative activity on breast cancer cells” value in assay [2] was “no effect”. For the same molecule, the “production of arachidonic acid” value in the assay with MCF10A cells and in the assay on MCF7 cells was “increased production of arachidonic acid” each time. Besides, in assay [3], the “anti-proliferative activity on fibrocystic cells” value is listed as “significant anti-proliferative activity”.

Regarding `O=[Se](=O)([O-])[O-].[Na+].[Na+]` [Selenium, sodium selenate], the “anti-proliferative activity on normal breast cells” value in assay [1] is “no relative effect”. In addition, the “anti-proliferative activity on breast cancer cells” value in assay [2] is listed as “anti-proliferative activity”. For the same molecule, the “anti-proliferative activity on fibrocystic cells” value in assay [3] is “anti-proliferative activity”.

Regarding `[I-].[K+]` [Iodine, potassium iodide], the “proliferation of thyroid follicular cells” value with thyroid follicular cells is given as “inhibits proliferation”. Moreover, the “anti-proliferative activity on breast cancer cells” value in assay [2] was “does not show any anti-proliferative effect”. Besides, the “anti-proliferative activity on fibrocystic cells” value in assay [3] is listed as “does not show any anti-proliferative effect”.

In the case of `CCCCC/C=C\C/C=C\C/C=C\CC(I)C1CCCC(=O)O1` (stereo not drawn) [iodo-arachidonate, 6-iodo-5-hydroxy-eicosatrienoic acid-delta-lactone], the “anti-proliferative activity on breast cancer cells” value in assay [2] is listed as “significant inhibitory effect”.
